Measurements as given in PubChem BioAssay (NCI).
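Here, GI50 denotes the concentration required for 50% inhibition of growth. At the TGI there is no net growth.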

Columns and labels:
Assay in all cases: NCI tumour cell line growth inhibition, 384-well format
A498 renal = test system: A498 renal
A549 NSCLC = test system: A549 NSCLC
ACHN renal = test system: ACHN renal
BT-549 breast = test system: BT-549 breast
CCRF-CEM leukemia = test system: CCRF-CEM leukemia
COLO 205 colon = test system: COLO 205 colon
DU-145 prostate = test system: DU-145 prostate
EKVX NSCLC = test system: EKVX NSCLC
HCC-2998 colon = test system: HCC-2998 colon
HCT-116 colon = test system: HCT-116 colon
HL-60(TB) leukemia = test system: HL-60(TB) leukemia
HOP-62 NSCLC = test system: HOP-62 NSCLC
HOP-92 NSCLC = test system: HOP-92 NSCLC
HS 578T breast = test system: HS 578T breast
HT29 colon = test system: HT29 colon
IGROV1 ovarian = test system: IGROV1 ovarian
K-562 leukemia = test system: K-562 leukemia
LOX IMVI melanoma = test system: LOX IMVI melanoma
M14 melanoma = test system: M14 melanoma
MALME-3M melanoma = test system: MALME-3M melanoma
MDA-MB-231 breast = test system: MDA-MB-231 breast
MDA-MB-435 melanoma = test system: MDA-MB-435 melanoma
MDA-MB-468 breast = test system: MDA-MB-468 breast
NCI-H226 lung = test system: NCI-H226 lung
NCI-H23 lung = test system: NCI-H23 lung
NCI-H322M lung = test system: NCI-H322M lung
NCI-H460 NSCLC = test system: NCI-H460 NSCLC
NCI/ADR-RES ovarian = test system: NCI/ADR-RES ovarian
OVCAR-3 ovarian = test system: OVCAR-3 ovarian
OVCAR-5 ovarian = test system: OVCAR-5 ovarian
OVCAR-8 ovarian = test system: OVCAR-8 ovarian
PC-3 prostate = test system: PC-3 prostate
RXF 393 renal = test system: RXF 393 renal
SF-268 CNS = test system: SF-268 CNS
SK-MEL-28 melanoma = test system: SK-MEL-28 melanoma
SK-MEL-5 melanoma = test system: SK-MEL-5 melanoma
SK-OV-3 ovarian = test system: SK-OV-3 ovarian
SN12C renal = test system: SN12C renal
SNB-19 CNS = test system: SNB-19 CNS
SNB-75 CNS = test system: SNB-75 CNS
SR leukemia = test system: SR leukemia
SW-620 colon = test system: SW-620 colon
T-47D breast = test system: T-47D breast
U251 glioblastoma = test system: U251 glioblastoma
UACC-257 melanoma = test system: UACC-257 melanoma
UACC-62 melanoma = test system: UACC-62 melanoma
UO-31 renal = test system: UO-31 renal

CC[C@H](Nc1ncnc2nc[nH]c12)c1oc2ccccc2c(=O)c1-c1cccc(F)c1
GI50 (A498 renal): 27.8 µM | TGI (A498 renal): > 100 µM | GI50 (A549 NSCLC): 27.9 µM | TGI (A549 NSCLC): > 100 µM | GI50 (ACHN renal): 23.2 µM | TGI (ACHN renal): 77.5 µM | GI50 (BT-549 breast): 15.5 µM | TGI (BT-549 breast): 39.5 µM | GI50 (CCRF-CEM leukemia): 16.8 µM | TGI (CCRF-CEM leukemia): 31 µM | GI50 (COLO 205 colon): 42.4 µM | TGI (COLO 205 colon): > 100 µM | GI50 (DU-145 prostate): 29.6 µM | TGI (DU-145 prostate): > 100 µM | GI50 (EKVX NSCLC): 23.8 µM | TGI (EKVX NSCLC): 70.7 µM | GI50 (HCC-2998 colon): 32.6 µM | TGI (HCC-2998 colon): 80 µM | GI50 (HCT-116 colon): 36.9 µM | TGI (HCT-116 colon): > 100 µM | GI50 (HL-60(TB) leukemia): 21.8 µM | TGI (HL-60(TB) leukemia): 36.6 µM | GI50 (HOP-62 NSCLC): 30.1 µM | TGI (HOP-62 NSCLC): > 100 µM | GI50 (HOP-92 NSCLC): 14.6 µM | TGI (HOP-92 NSCLC): 39.1 µM | GI50 (HS 578T breast): 15.1 µM | TGI (HS 578T breast): 37.2 µM | GI50 (HT29 colon): 32.3 µM | TGI (HT29 colon): > 100 µM | GI50 (IGROV1 ovarian): 24.1 µM | TGI (IGROV1 ovarian): 59.2 µM | GI50 (K-562 leukemia): 26.5 µM | TGI (K-562 leukemia): > 96.6 µM | GI50 (LOX IMVI melanoma): 26.3 µM | TGI (LOX IMVI melanoma): 82.1 µM | GI50 (M14 melanoma): 37.7 µM | TGI (M14 melanoma): > 100 µM | GI50 (MALME-3M melanoma): 23.6 µM | TGI (MALME-3M melanoma): 62.8 µM | GI50 (MDA-MB-231 breast): 26.2 µM | TGI (MDA-MB-231 breast): > 100 µM | GI50 (MDA-MB-435 melanoma): 24.2 µM | TGI (MDA-MB-435 melanoma): 56.5 µM | GI50 (MDA-MB-468 breast): 9.6 µM | TGI (MDA-MB-468 breast): 27.2 µM | GI50 (NCI-H226 lung): 23.8 µM | TGI (NCI-H226 lung): 83 µM | GI50 (NCI-H23 lung): 23.9 µM | TGI (NCI-H23 lung): 78.3 µM | GI50 (NCI-H322M lung): 90.5 µM | TGI (NCI-H322M lung): > 100 µM | GI50 (NCI-H460 NSCLC): 34.7 µM | TGI (NCI-H460 NSCLC): > 100 µM | GI50 (NCI/ADR-RES ovarian): 24 µM | TGI (NCI/ADR-RES ovarian): 60.4 µM | GI50 (OVCAR-3 ovarian): 18.2 µM | TGI (OVCAR-3 ovarian): 40.8 µM | GI50 (OVCAR-5 ovarian): 39.9 µM | TGI (OVCAR-5 ovarian): > 100 µM | GI50 (OVCAR-8 ovarian): 32.6 µM | TGI (OVCAR-8 ovarian): > 100 µM | GI50 (PC-3 prostate): 18.5 µM | TGI (PC-3 prostate): 52.6 µM | GI50 (RXF 393 renal): 21.1 µM | TGI (RXF 393 renal): > 69.5 µM | GI50 (SF-268 CNS): 29.8 µM | TGI (SF-268 CNS): > 89.4 µM | GI50 (SK-MEL-28 melanoma): 27.7 µM | TGI (SK-MEL-28 melanoma): > 86.1 µM | GI50 (SK-MEL-5 melanoma): 17.9 µM | TGI (SK-MEL-5 melanoma): 39.7 µM | GI50 (SK-OV-3 ovarian): 24.5 µM | TGI (SK-OV-3 ovarian): 63.8 µM | GI50 (SN12C renal): 30.5 µM | TGI (SN12C renal): 98.9 µM | GI50 (SNB-19 CNS): 37.1 µM | TGI (SNB-19 CNS): > 100 µM | GI50 (SNB-75 CNS): 23.2 µM | TGI (SNB-75 CNS): 60.7 µM | GI50 (SR leukemia): 12.4 µM | TGI (SR leukemia): 25.2 µM | GI50 (SW-620 colon): 48.7 µM | TGI (SW-620 colon): > 81.2 µM | GI50 (T-47D breast): 24.4 µM | TGI (T-47D breast): > 86.2 µM | GI50 (U251 glioblastoma): 31 µM | TGI (U251 glioblastoma): > 100 µM | GI50 (UACC-257 melanoma): 33 µM | TGI (UACC-257 melanoma): > 87.9 µM | GI50 (UACC-62 melanoma): 16.3 µM | TGI (UACC-62 melanoma): 36.8 µM | GI50 (UO-31 renal): 3.16 µM | TGI (UO-31 renal): > 100 µM
